Data: patent US4950669A, “Methods and compositions for promoting growth of animals” (priority 1987, dated 1990)

Columns and labels:
[1] = 70-day lamb study, oral or i.m. injection (Example XVII); assay type: in vivo, lambs
Experimental: A 70-day study was conducted in which N-morpholinyl-β-benzoyl-propionamide was administered to lambs by i.m. injection or by admixture with feed. In the case of oral administration, the N-morpholinyl-β-benzoyl-propionamide was mixed with the complete mixed ration at a level of 30 ppm.

[2] = organ weight variations in the rat after per os treatment; assay type: in vivo; details: 300 mg/kg per os
[3] = acute toxicity (LD50) in the mouse; assay type: in vivo; details: for LD50: in vivo
[4] = 21-day battery study in chickens (Example XIII); assay type: in vivo
Experimental: N-morpholinyl-β-benzoyl-propionamide was admixed with chicken feed at concentrations of 1.0 ppm, 7.5 ppm and 15 ppm. A 21-day battery study was conducted with the NMBP-containing feed. One group of controls was unmedicated, while a second control group received Bacitracin MD in its feed at 30 g/ton. The birds were fed ad libitum and weighed on days 7, 14 and 21. There were 10 birds per replication, 4 replications in controls and 2 replications per drug treatment.

[5] = Injection, 1.5 mg/kg i.m. every 2 weeks
[6] = Injection, 1.5 mg/kg i.m. every 2 weeks, Day 0-14
[7] = Injection, 1.5 mg/kg i.m. every 2 weeks, Day 0-28
[8] = Injection, 1.5 mg/kg i.m. every 2 weeks, Day 0-42
[9] = Injection, 1.5 mg/kg i.m. every 2 weeks, Day 0-56
[10] = Injection, 1.5 mg/kg i.m. every 2 weeks, Day 0-70
[11] = Injection, 1.5 mg/kg i.m. every 2 weeks, Day 15-28
[12] = Injection, 1.5 mg/kg i.m. every 2 weeks, Day 29-42
[13] = Injection, 1.5 mg/kg i.m. every 2 weeks, Day 43-56
[14] = Injection, 1.5 mg/kg i.m. every 2 weeks, Day 57-70

In the case of `O=C(CCC(=O)N1CCOCC1)c1ccccc1` [NMBP, N-morpholinyl-β-benzoyl-propionamide], the “weight loss of one lamb” value ([1]; Injection group, during the previous 2-week period, sacrificed on Day 55) is reported as 10 pounds, the “Necropsy of one lamb” value ([1]; Injection group, one lamb sacrificed on Day 55) is reported as “chronic focal pneumonia” and the “Daily Gain, Period” value [1, 5] is reported as “.16 kilograms”. For the same compound, the “Weight, Final” value [1, 5] was 42.1 kilograms, the “Weight, Initial” value ([1]; Injection, 1.5 mg/kg i.m. every 2 weeks (baseline)) was 27.6 kilograms and the “Daily Feed DM Consumption, Cumulative” value [1, 6] was 0.94 kilograms. For the same compound, the “Daily Feed DM Consumption, Period” value [1, 6] was 0.94 kilograms, the “Daily Gain, Cumulative” value [1, 6] was “.23 kilograms” and the “Daily Gain, Period” value [1, 6] was “.23 kilograms”. The “Feed DM/Gain, Cumulative” value [1, 6] was 4.09, the “Feed DM/Gain, Period” value [1, 6] was 4.09 and the “Daily Feed DM Consumption, Cumulative” value [1, 7] was 1.00 kilograms. The “Daily Gain, Cumulative” value [1, 7] was “.22 kilograms”, the “Feed DM/Gain, Cumulative” value [1, 7] was 4.55 and the “Daily Feed DM Consumption, Cumulative” value [1, 8] was 1.05 kilograms. The “Daily Gain, Cumulative” value [1, 8] was “.22 kilograms”, the “Feed DM/Gain, Cumulative” value [1, 8] was 4.77 and the “Daily Feed DM Consumption, Cumulative” value [1, 9] was 1.06 kilograms. The “Daily Gain, Cumulative” value [1, 9] was “.22 kilograms”, the “Feed DM/Gain, Cumulative” value [1, 9] was 4.82 and the “Daily Feed DM Consumption, Cumulative” value [1, 10] was 1.11 kilograms. For the same compound, the “Daily Gain, Cumulative” value [1, 10] was “.21 kilograms”, the “Feed DM/Gain, Cumulative” value [1, 10] was 5.29 and the “Daily Feed DM Consumption, Period” value [1, 11] was 1.06 kilograms. The “Daily Gain, Period” value [1, 11] was “.21 kilograms”, the “Feed DM/Gain, Period” value [1, 11] was 5.05 and the “Daily Feed DM Consumption, Period” value [1, 12] was 1.14 kilograms. For the same compound, the “Daily Gain, Period” value [1, 12] was “.22 kilograms”, the “Feed DM/Gain, Period” value [1, 12] was 5.18 and the “Daily Feed DM Consumption, Period” value [1, 13] was 1.12 kilograms. For the same compound, the “Daily Gain, Period” value [1, 13] was “.22 kilograms”, the “Feed DM/Gain, Period” value [1, 13] was 5.09 and the “Daily Feed DM Consumption, Period” value [1, 14] was 1.29 kilograms. For the same compound, the “Feed DM/Gain, Period” value [1, 14] was 8.06, the “Daily Gain, Period” value ([1]; Oral, 30 ppm) was “.14 kilograms” and the “Weight, Final” value ([1]; Oral, 30 ppm) was 43.0 kilograms. For the same compound, the “Weight, Initial” value ([1]; Oral, 30 ppm (baseline)) was 28.1 kilograms, the “Daily Feed DM Consumption, Cumulative” value ([1]; Oral, 30 ppm, Day 0-14) was 1.05 kilograms and the “Daily Feed DM Consumption, Period” value ([1]; Oral, 30 ppm, Day 0-14) was 1.05 kilograms. For the same compound, the “Daily Gain, Cumulative” value ([1]; Oral, 30 ppm, Day 0-14) was “.27 kilograms”, the “Daily Gain, Period” value ([1]; Oral, 30 ppm, Day 0-14) was “.27 kilograms” and the “Feed DM/Gain, Cumulative” value ([1]; Oral, 30 ppm, Day 0-14) was 3.89. The “Feed DM/Gain, Period” value ([1]; Oral, 30 ppm, Day 0-14) was 3.89, the “Daily Feed DM Consumption, Cumulative” value ([1]; Oral, 30 ppm, Day 0-28) was 1.10 kilograms and the “Daily Gain, Cumulative” value ([1]; Oral, 30 ppm, Day 0-28) was “.24 kilograms”. For the same compound, the “Feed DM/Gain, Cumulative” value ([1]; Oral, 30 ppm, Day 0-28) was 4.58, the “Daily Feed DM Consumption, Cumulative” value ([1]; Oral, 30 ppm, Day 0-42) was 1.12 kilograms and the “Daily Gain, Cumulative” value ([1]; Oral, 30 ppm, Day 0-42) was “.23 kilograms”. The “Feed DM/Gain, Cumulative” value ([1]; Oral, 30 ppm, Day 0-42) was 4.87, the “Daily Feed DM Consumption, Cumulative” value ([1]; Oral, 30 ppm, Day 0-56) was 1.14 kilograms and the “Daily Gain, Cumulative” value ([1]; Oral, 30 ppm, Day 0-56) was “.23 kilograms”. For the same compound, the “Feed DM/Gain, Cumulative” value ([1]; Oral, 30 ppm, Day 0-56) was 4.96, the “Daily Feed DM Consumption, Cumulative” value ([1]; Oral, 30 ppm, Day 0-70) was 1.16 kilograms and the “Daily Gain, Cumulative” value ([1]; Oral, 30 ppm, Day 0-70) was “.21 kilograms”. For the same compound, the “Feed DM/Gain, Cumulative” value ([1]; Oral, 30 ppm, Day 0-70) was 5.52, the “Daily Feed DM Consumption, Period” value ([1]; Oral, 30 ppm, Day 15-28) was 1.16 kilograms and the “Daily Gain, Period” value ([1]; Oral, 30 ppm, Day 15-28) was “.20 kilograms”. The “Feed DM/Gain, Period” value ([1]; Oral, 30 ppm, Day 15-28) was 5.80, the “Daily Feed DM Consumption, Period” value ([1]; Oral, 30 ppm, Day 29-42) was 1.17 kilograms and the “Daily Gain, Period” value ([1]; Oral, 30 ppm, Day 29-42) was “.22 kilograms”. For the same compound, the “Feed DM/Gain, Period” value ([1]; Oral, 30 ppm, Day 29-42) was 5.32, the “Daily Feed DM Consumption, Period” value ([1]; Oral, 30 ppm, Day 43-56) was 1.19 kilograms and the “Daily Gain, Period” value ([1]; Oral, 30 ppm, Day 43-56) was “.23 kilograms”. The “Feed DM/Gain, Period” value ([1]; Oral, 30 ppm, Day 43-56) was 5.17, the “Daily Feed DM Consumption, Period” value ([1]; Oral, 30 ppm, Day 57-70) was 1.26 kilograms and the “Feed DM/Gain, Period” value ([1]; Oral, 30 ppm, Day 57-70) was 9.00. The “organ weight variation, suprarenal gland” value ([2]; controls +0.011) was “+0.011%”, the “organ weight variation, heart” value ([2]; controls +0.257) was “+0.304%” and the “organ weight variation, lung” value ([2]; controls +0.598) was “+0.675%”. For the same compound, the “organ weight variation, kidney” value ([2]; controls +0.65) was “+0.71%”, the “organ weight variation, liver” value ([2]; controls +3.22) was “+3.63%” and the “LD50, safe limits” value ([3]; i.p.) was 648 to 1363 mg/kg. It also gave an LD50 ([3]; ip) of 940 mg/kg, an LD50 ([3]; po, per os) of over 2000 mg/kg and a F/G ([4]; feed 1 ppm, Day 7) of 1.38. For the same compound, the “Weight Gain” value ([4]; feed 1 ppm, Day 7) was 341 g, the F/G ([4]; feed 1 ppm, Day 14) was 1.47 and the “Weight Gain” value ([4]; feed 1 ppm, Day 14) was 715 g. For the same compound, the F/G ([4]; feed 1 ppm, Day 21) was 1.62, the “Weight Gain” value ([4]; feed 1 ppm, Day 21) was 1152 g and the F/G ([4]; feed 7.5 ppm, Day 7) was 1.40. The “Weight Gain” value ([4]; feed 7.5 ppm, Day 7) was 325 g, the F/G ([4]; feed 7.5 ppm, Day 14) was 1.49 and the “Weight Gain” value ([4]; feed 7.5 ppm, Day 14) was 697 g. The F/G ([4]; feed 7.5 ppm, Day 21) was 1.60, the “Weight Gain” value ([4]; feed 7.5 ppm, Day 21) was 1113 g and the F/G ([4]; feed 15 ppm, Day 7) was 1.42. For the same compound, the “Weight Gain” value ([4]; feed 15 ppm, Day 7) was 318 g, the F/G ([4]; feed 15 ppm, Day 14) was 1.47 and the “Weight Gain” value ([4]; feed 15 ppm, Day 14) was 688 g. For the same compound, the F/G ([4]; feed 15 ppm, Day 21) was 1.54 and the “Weight Gain” value ([4]; feed 15 ppm, Day 21) was 1164 g.
